Measured values published in patent US20230089267A1, “Compositions and Methods For Reducing Immune Intolerance and Treating Autoimmune Disorders” (Lapix Therapeutics, Inc., priority 2021, published 2023).

Experiments:
[1] = system: MOG35-55-induced murine EAE model; assay: MOG35-55-induced murine EAE model, Compound 2 versus Compound 8 (Example 12); assay type: in vivo, mice; details: 3 μg/mouse/day SC, after ten days of treatment
Method: Mice were immunized with 100 μg MOG35-55 emulsified with CFA and pertussis toxin, as described in Example 4. At disease onset (clinical score 1), mice were randomized into two treatment groups, and received 3 μg/mouse/day SC of either Compound 2 or Compound 8.

[2] = system: pristane-induced lupus model; assay: Pristane-induced lupus model; assay type: in vivo, mice; details: 3 μg SC daily, interim data
Method: Four-week old female Balb/c mice received 0.5 ml IP injection of pristane (Sigma Aldrich). Eight weeks post pristane injection, all mice tested positive for anti-dsDNA antibody titers (FUJIFILM Wako Pure Chemical Corporation), indicating systemic disease onset. On Day 60, mice were randomized to treatment (n=12) (Compound 2, 3 μg SC daily) or control group (n=11), and treatment was started. Mice were monitored daily for cutaneous lupus symptoms by checking for the appearance of skin lesions.

[3] = system: MOG35-55-induced murine EAE model; assay: Escalation treatment paradigm in MOG35-55-induced murine EAE model (Example 8); assay type: in vivo, mice
Method: Compound 2 (0.03 mg/ml) was formulated with hydroxypropyl beta cyclodextrin (HPCD) 1:80 (Compound 2:HPCD) and stored at 4° C. until use. Natalizumab, an anti-α4β1 integrin antibody is a monoclonal antibody that is approved by U.S. Food and Drug Administration (FDA) for the treatment of relapsing forms of MS. […] Natalizumab was diluted in PBS to a final concentration of 15 mg/ml before dosing. DMF is a disease-modifying therapy (DMT) recommended for the treatment of active relapsing multiple sclerosis. DMF (1 g) was dissolved in 50 ml of 4% solution of METHOCEL© to give a 20 mg/ml solution of DMF. The solution was stored at 4° C. until use.
Experimental autoimmune (allergic) encephalomyelitis (EAE) is considered to be the best non-clinical model of multiple sclerosis (MS). Over 6,000 papers have been published in scientific journals on this model. EAE is characterized by immune responses against CNS tissue and can be induced in animals by immunizing them against proteins of the CNS. In the active EAE model, mice are immunized with MOG35-55 peptide emulsified in Complete Freund's Adjuvant (CFA) by subcutaneous injection at the tail base (100 μg of […] per mouse) under anesthesia. On the day of injection (Day 0) and two days later (Day 2), mice receive an intraperitoneal injection of pertussis toxin (PT) in PBS at 200 ng/mouse/dose (0.1 mL). Symptoms typically develop in mice 9-14 days after immunization (Day 0). Daily observation and scoring of mice start on Day 7 and continue until the end of the study. Table 5 (see Example 4 above) details the expected clinical symptoms and the scoring criteria used in this study.
This study was designed to evaluate the early sustained use of Compound 2 versus DMF in a treatment escalation paradigm (sustained use cohort), and Compound 2 versus natalizumab after DMF failure (escalation cohort). All animals in the escalation cohorts received 14 doses of DMF or Compound 2, or 3 doses of natalizumab, as per group assignment.
Probability of disease control: Disease control was defined as a clinical score of less than 2.5. Animals in the different treatment groups were monitored after the 3:1:1 randomization. A score of 2.5 was recorded as an event and analyzed by survival analysis in GraphPad Prism 9. Animals not reaching a clinical score of 2.5 by day 14, the end of the treatment period, were assigned a score of zero for the survival analysis.
Efficacy of Compound 2 versus DMF in early sustained use: Animals in the DMF group that reached a score of 2.5 were randomized 1:1:1, as per FIG. 5A. Animals randomized to continue DMF treatment were given the remainder of the 14 DMF doses. Animals from the first randomization that were treated with Compound 2 after disease onset continued treatment for a total of 14 doses. After the 14th dose, treatment was stopped and clinical score and overall survival were monitored.
Efficacy of Compound 2 versus natalizumab in a treatment escalation cohort: Animals in the DMF group that reached a score of 2.5 were randomized 1:1:1, as per FIG. 5A. Animals randomized to natalizumab were dosed 100 μg/mouse IV every 3 days for 3 total doses starting the same day a score of 2.5 was recorded. Animals randomized to Compound 2 were dosed with 3 μg/mouse SC QD for 14 total doses starting on the same day a score of 2.5 was recorded.
Overall survival: Death due to the disease was monitored in the early sustained use cohort as well as the escalation cohort. Death by disease (clinical score of 5) was recorded as an event “1,” death due to ulceration or for ex vivo analysis was recorded as “0.” Animals surviving until the end of the study were recorded “0” on day 27. Survival analysis was done in GraphPad Prism 9.

passive MG model = assay: Passive myasthenia gravis model, adoptive transfer to RAG2−/− mice; assay type: in vivo; details: by day 10, SC daily for ten days
Method: In this passive MG model in B6 mice, donor mice (n=20, aged 6-8 weeks) were immunized with complete Freund's adjuvant (CFA) and nicotinic acetylcholine receptor (AChR) emulsion weekly for four weeks. Seven days after the last immunization, splenocytes were collected, and 10^6 cells/mouse were transferred to RAG2^−/− mice. The recipient mice (n=10/group) were treated one day after adoptive transfer with prednisone (1 μg/mouse) SC daily for ten days after disease onset or Compound 2 3 μg SC daily for ten days after disease onset, or were left untreated. Minimal manifestation of disease was defined as a return to a clinical score of 1 after an exacerbation (score 2 or higher). Time to return to minimal score was logged, and the likelihood of return was plotted for untreated animals, and standard of care (SOC; prednisone)- and Compound 2-treated animals.

[4] = escalation cohort after DMF failure (score 2.5), by day 14 after switching

Compound: N[C@@H](CNC(=O)Cc1ccc(OCc2cccc3ccccc23)cc1)C(=O)O [Compound 2, (S)-2-Amino-3-(2-(4-(naphthalen-1-ylmethoxy)phenyl)acetamido)propanoic acid]
- mean clinical score, comparison of the two groups [1]: no statistical difference
- incidence of cutaneous lupus ([2]; after two weeks of treatment): 8%
- onset of cutaneous symptoms compared to untreated control mice [2]: delayed by two days
- disease course in early sustained use cohort ([3]; 14 doses, followed to end of study): better overall disease control during therapy (day 1 to 14) and after stopping therapy (day 14 to end of study)
- mean clinical score after switching from DMF [3, 4]: 2.6 (SD=1.1)
- median clinical score after switching from DMF [3, 4]: 2.5
- animals that survived until day 27, escalation cohort ([3]; switched from DMF): 8 out of 9
- overall survival, early sustained use cohort ([3]; to day 27): all animals treated with Compound 2 survived until day 27
- animals that progressed to a disease score of 2.5 ([3]; treatment from disease onset (score 1), over the entire treatment period (14 days)): 5 of the 9
- animals returned to minimal manifestation of disease (score 1) (passive MG model): 63%
